Assay results published in ChEMBL document CHEMBL1201862, “PubChem BioAssay data set” (2004).
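Cultured in 96-well plates, cells were exposed to test compound for 48 hours across five concentrations. GI50 = concentration required for 50% inhibition of growth.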 The source made the active and inactive calls. Cut-off read from the data, not from the text of the source: active = GI50 up to about 1.1 µM and inactive = higher.

Columns and labels:
Experiment in all cases: growth of human tumour cells (NCI), 48 h
KM12 = system: KM12
EKVX = system: EKVX
COLO 205 = system: COLO 205
MDA-N = system: MDA-N
RXF 393 = system: RXF 393
UACC-62 = system: UACC-62
OVCAR-8 = system: OVCAR-8
CAKI-1 = system: CAKI-1
SF-268 = system: SF-268
SK-MEL-5 = system: SK-MEL-5
T47D = system: T47D
MOLT-4 = system: MOLT-4
U-251 = system: U-251
HOP-92 = system: HOP-92
MDA-MB-435 = system: MDA-MB-435
NCI/ADR-RES = system: NCI/ADR-RES
OVCAR-3 = system: OVCAR-3
MDA-MB-231 = system: MDA-MB-231
NCI-H23 = system: NCI-H23
A498 = system: A498

Row | Compound | GI50 (KM12) | GI50 (EKVX) | GI50 (COLO 205) | GI50 (MDA-N) | GI50 (RXF 393) | GI50 (UACC-62) | GI50 (OVCAR-8) | GI50 (CAKI-1) | GI50 (SF-268) | GI50 (SK-MEL-5) | GI50 (T47D) | GI50 (MOLT-4) | GI50 (U-251) | GI50 (HOP-92) | GI50 (MDA-MB-435) | GI50 (NCI/ADR-RES) | GI50 (OVCAR-3) | GI50 (MDA-MB-231) | GI50 (NCI-H23) | GI50 (A498)
1 | O=C(O)c1cc2ccccc2c(/N=N/c2ccc(S(=O)(=O)Nc3ccccn3)cc2)c1O | > 100 µM (inactive) | > 100 µM (inactive) | > 100 µM (inactive) | > 100 µM (inactive) | > 100 µM (inactive) | > 100 µM (inactive) | > 100 µM (inactive) | > 100 µM (inactive) | > 100 µM (inactive) | > 100 µM (inactive) | > 100 µM (inactive) | > 100 µM (inactive) | > 100 µM (inactive) | > 100 µM (inactive) | > 100 µM (inactive) | > 100 µM (inactive) | > 100 µM (inactive) | > 100 µM (inactive) | – | –
2 | CCN(C(=S)N[C@@H](Cc1ccccc1)C(=O)N[C@@H](CC(C)C)C(=O)OC)c1ccccc1 | 50.9 µM (inactive) | > 100 µM (inactive) | 49.2 µM (inactive) | > 100 µM (inactive) | > 100 µM (inactive) | > 100 µM (inactive) | > 100 µM (inactive) | > 100 µM (inactive) | – | > 100 µM (inactive) | > 100 µM (inactive) | 23.4 µM (inactive) | 50.7 µM (inactive) | > 100 µM (inactive) | > 100 µM (inactive) | > 100 µM (inactive) | > 100 µM (inactive) | > 100 µM (inactive) | 71.4 µM (inactive) | –
3 | O=C(NNc1cn[nH]c(=O)c1Cl)/C(=C/c1ccc2c(c1)OCO2)NC(=O)c1ccccc1 | 34.7 µM (inactive) | 19.1 µM (inactive) | 46.9 µM (inactive) | 44.7 µM (inactive) | – | 35.2 µM (inactive) | 36.7 µM (inactive) | 22.9 µM (inactive) | – | 40.8 µM (inactive) | 73.5 µM (inactive) | 33.4 µM (inactive) | 53.5 µM (inactive) | > 100 µM (inactive) | 79.4 µM (inactive) | 35.6 µM (inactive) | 71.3 µM (inactive) | > 100 µM (inactive) | 42.5 µM (inactive) | –
4 | Brc1cc2nn(-c3ccccc3)nc2c2nonc12 | > 100 µM (inactive) | > 100 µM (inactive) | > 100 µM (inactive) | > 100 µM (inactive) | – | > 100 µM (inactive) | > 100 µM (inactive) | > 100 µM (inactive) | > 100 µM (inactive) | > 100 µM (inactive) | 28.4 µM (inactive) | > 100 µM (inactive) | > 100 µM (inactive) | > 100 µM (inactive) | > 100 µM (inactive) | > 100 µM (inactive) | > 100 µM (inactive) | > 100 µM (inactive) | > 100 µM (inactive) | –
5 | CNC(=O)CCNC(=O)CCC(=O)OC | > 100 µM (inactive) | – | > 100 µM (inactive) | > 100 µM (inactive) | > 100 µM (inactive) | > 100 µM (inactive) | > 100 µM (inactive) | > 100 µM (inactive) | > 100 µM (inactive) | > 100 µM (inactive) | > 100 µM (inactive) | > 100 µM (inactive) | > 100 µM (inactive) | – | > 100 µM (inactive) | > 100 µM (inactive) | > 100 µM (inactive) | > 100 µM (inactive) | > 100 µM (inactive) | > 100 µM (inactive)
6 | O=C1C=CC2(O[C@H](c3ccccc3)[C@@H](c3ccccc3)O2)C(SC(=O)c2ccccc2)C1 (stereo not given in full) | 2.27 µM (inactive) | 0.182 µM (active) | 1.4 µM (inactive) | 1.43 µM (inactive) | 0.182 µM (active) | 2.34 µM (inactive) | 0.201 µM (active) | 1.67 µM (inactive) | 1.3 µM (inactive) | 1.47 µM (inactive) | 2.06 µM (inactive) | 0.35 µM (active) | 1.56 µM (inactive) | – | 2.02 µM (inactive) | 1.57 µM (inactive) | 1.79 µM (inactive) | 3.9 µM (inactive) | 1.63 µM (inactive) | 7.71 µM (inactive)
7 | Cc1cc(S(=O)(=O)N=C2NCC(C)(C)CN2)c(S)cc1Cl | 30.8 µM (inactive) | 48.8 µM (inactive) | 47.3 µM (inactive) | 22.2 µM (inactive) | 38 µM (inactive) | 25.3 µM (inactive) | 27 µM (inactive) | 52 µM (inactive) | 73.3 µM (inactive) | 17.2 µM (inactive) | 42.1 µM (inactive) | – | 23.7 µM (inactive) | – | 23.2 µM (inactive) | 50.8 µM (inactive) | 35.7 µM (inactive) | 43.4 µM (inactive) | – | > 100 µM (inactive)
